Results: patent publication US12655116B2, “Substituted isophthalic acid diamides” (Bayer Aktiengesellschaft, priority 2020, dated 2026)

Assays:
[1] = tested on: VERPE; assay: Post-emergence herbicidal action against VERPE; format: in vivo, Veronica persica; details: 20 g/ha
Outline: (§1)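 Post-emergence greenhouse test; one-leaf stage, 2–3 wk post-sowing, sandy loam. Foliar spray of WP/EC in water, 600–800 l/ha, +0.2% wetting agent. Visual % action at ~3 wk vs untreated (100% = plants dead).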

[2] = tested on: VERPE; assay: Pre-emergence herbicidal action against VERPE; format: in vivo, Veronica persica; details: dosage 80 g/ha
Outline: (§2)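 Herbicidal effect was assessed 3 weeks after treatment by visual comparison with untreated controls, 100% denoting dead plants. Aqueous WP or EC preparations had been applied at 600 to 800 l/ha with 0.2% wetting agent to the soil covering freshly sown seeds.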

[3] = tested on: AMARE; assay: Pre-emergence herbicidal action against AMARE; format: in vivo, Amaranthus retroflexus
Outline: as §2

[4] = tested on: ALOMY; assay: Pre-emergence herbicidal action against ALOMY; format: in vivo, Alopecurus myosuroides
Outline: as §2

[5] = tested on: ABUTH; assay: Pre-emergence herbicidal action against ABUTH; format: in vivo, Abutilon theophrasti
Outline: as §2

[6] = tested on: PHBPU; assay: Post-emergence herbicidal action against PHBPU; format: in vivo, Pharbitis purpurea
Outline: as §1

[7] = tested on: ECHCG; assay: Post-emergence herbicidal action against ECHCG; format: in vivo, Echinochloa crus-galli
Outline: as §1

[8] = tested on: ALOMY; assay: Post-emergence herbicidal action against ALOMY; format: in vivo, Alopecurus myosuroides; details: dosage 20 g/ha, visual assessment about 3 weeks after treatment vs untreated controls
Outline: as §1

[9] = tested on: DIGSA; assay: Pre-emergence herbicidal action against DIGSA; format: in vivo, Digitaria sanguinalis
Outline: as §2

[10] = tested on: SETVI; assay: Post-emergence herbicidal action against SETVI; format: in vivo, Setaria viridis
Outline: as §1

[11] = tested on: LOLRI; assay: Pre-emergence herbicidal action against LOLRI; format: in vivo, Lolium rigidum; details: 80 g/ha
From the text: Seeds of monocotyledonous and dicotyledonous weed plants and crop plants are laid out in sandy loam soil in wood-fiber pots and covered with soil. The compounds of the invention, formulated in the form of wettable powders (WP) or as emulsion concentrates (EC), are then applied to the surface of the covering soil in the form of an aqueous suspension or emulsion at a water application rate equivalent to 600 to 800 l/ha, with addition of 0.2% wetting agent. After the treatment, the pots are placed in a greenhouse and kept under good growth conditions for the trial plants. The damage to the test plants is scored visually after a test period of 3 weeks by comparison with untreated controls (herbicidal activity in percent (%): 100% activity=the plants have died, 0% activity=like control plants). […] The tables below illustrate, in an illustrative manner, the post-emergence herbicidal action of the compounds of the invention, the herbicidal activity being stated in percent.

[12] = tested on: SETVI; assay: Pre-emergence herbicidal action against SETVI; format: in vivo, Setaria viridis; details: dosage 80 g/ha
Outline: as §2

[13] = tested on: MATIN; assay: Pre-emergence herbicidal action against MATIN; format: in vivo, Matricaria inodora
Outline: as §2

[14] = tested on: ABUTH; assay: Post-emergence herbicidal action against ABUTH; format: in vivo, Abutilon theophrasti; details: visual assessment about 3 weeks after treatment vs untreated controls
Outline: as §1

[15] = tested on: AMARE; assay: Post-emergence herbicidal action against AMARE; format: in vivo, Amaranthus retroflexus; details: 20 g/ha, visual assessment about 3 weeks after treatment, 100% = plants have died, 0% = like control plants
Outline: as §1

[16] = tested on: VIOTR; assay: Pre-emergence herbicidal action against VIOTR; format: in vivo, Viola tricolor
Outline: as §2

[17] = tested on: ECHCG; assay: Pre-emergence herbicidal action against ECHCG; format: in vivo, Echinochloa crus-galli; details: 80 g/ha
Outline: as §2

[18] = tested on: DIGSA; assay: Post-emergence herbicidal action against DIGSA; format: in vivo, Digitaria sanguinalis
Outline: as §1

[19] = tested on: AVEFA; assay: Pre-emergence herbicidal action against AVEFA; format: in vivo, Avena fatua; details: Avena fatua, 504 h; 80 g/ha, pre-emergence
Outline: as §2

[20] = tested on: MATIN; assay: Post-emergence herbicidal action against MATIN; format: in vivo, Matricaria inodora; details: Tripleurospermum inodorum, 504 h
Outline: as §1

[21] = tested on: VIOTR; assay: Post-emergence herbicidal action against VIOTR; format: in vivo, Viola tricolor; details: Viola tricolor, 504 h
Outline: as §1

[22] = 80 g/ha, scored visually after 3 weeks vs untreated controls (100% = plants have died, 0% = like control plants)

In the case of COCCNC(=O)c1c(C(F)(F)F)ccc(C(=O)Nc2nnnn2C)c1C [Example 1-34], the “Post-emergence action against VERPE in %” value [1] is reported as 90%, the “Pre-emergence action against VERPE in %” value [2] is reported as 100% and the “Pre-emergence action against AMARE in %” value ([3]; 20 g/ha, scored visually after 3 weeks vs untreated controls, 100% = plants have died, 0% = like control plants) is reported as 100%. For the same compound, the “Pre-emergence action against AMARE in %” value [3, 22] was 100%, the “Pre-emergence action against ALOMY” value ([4]; 20 g/ha, scored visually after 3 weeks, 100% = plants have died, 0% = like control plants) was 80% and the “Pre-emergence action against ALOMY (herbicidal activity)” value ([4]; 80 g/ha, pre-emergence, scored visually after 3 weeks vs untreated controls (100% = plants have died, 0% = like control plants)) was 100%. The “Pre-emergence action against ABUTH (herbicidal activity)” value [5, 22] was 100%, the “Pre-emergence action against ABUTH (herbicidal activity in percent)” value ([5]; dosage 20 g/ha, scored visually after 3 weeks vs untreated controls, 100% = plants have died, 0% = like control plants) was 80% and the “Post-emergence action against PHBPU in %” value ([6]; dosage 5 g/ha) was 90%. The “Post-emergence action against PHBPU in %” value ([6]; dosage 20 g/ha) was 90%, the “Post-emergence action against ECHCG in %” value ([7]; dosage 5 g/ha) was 90% and the “Post-emergence action against ECHCG in %” value ([7]; dosage 20 g/ha) was 90%. The “Post-emergence action against ALOMY in %” value [8] was 90%, the “Pre-emergence action against DIGSA in %” value ([9]; dosage 20 g/ha) was 100% and the “Pre-emergence action against DIGSA in %” value ([9]; dosage 80 g/ha) was 100%. The “Post-emergence action against SETVI in %” value ([10]; dosage 5 g/ha) was 80%, the “Post-emergence action against SETVI in %” value ([10]; dosage 20 g/ha) was 90% and the “Pre-emergence action against LOLRI in %” value [11] was 80%. For the same compound, the “Pre-emergence action against SETVI in %” value [12] was 100%, the “Pre-emergence action against MATIN in %” value ([13]; dosage 80 g/ha) was 90% and the “Post-emergence action against ABUTH in %” value ([14]; dosage 5 g/ha) was 90%. For the same compound, the “Post-emergence action against ABUTH in %” value ([14]; dosage 20 g/ha) was 100%, the “Post-emergence action at 20 g/ha against AMARE in %” value [15] was 100% and the “Pre-emergence action against VIOTR in %” value ([16]; dosage 20 g/ha) was 100%. The “Pre-emergence action against VIOTR in %” value ([16]; dosage 80 g/ha) was 100%, the “Pre-emergence action against ECHCG in %” value [17] was 90% and the “Post-emergence action against DIGSA in %” value ([18]; 5 g/ha) was 80%. The “Post-emergence action against DIGSA” value ([18]; 20 g/ha) was 90%.
CSc1c(C(=O)Nc2nnnn2C)ccc(C(F)(F)F)c1C(=O)NC1CC1 [Example 1-83] was tested, and the pest or weed control at 20 g/ha ([1]; Veronica persica, 504 h) was 90%, the pest or weed control at 80 g/ha ([2]; Veronica persica, 504 h) was 80% and the pest or weed control at 80 g/ha ([3]; Amaranthus retroflexus, 504 h, 80 g/ha, scored visually after 3 weeks vs untreated controls, 100% = plants have died, 0% = like control plants) was 100%. For the same compound, the pest or weed control at 80 g/ha [19] was 80%, the pest or weed control at 80 g/ha ([4]; Alopecurus myosuroides, 504 h, 80 g/ha, pre-emergence, scored visually after 3 weeks vs untreated controls (100% = plants have died, 0% = like control plants)) was 100% and the pest or weed control at 20 g/ha ([4]; Alopecurus myosuroides, pre-emergence, 504 h, 20 g/ha, scored visually after 3 weeks, 100% = plants have died, 0% = like control plants) was 80%. It also gave a pest or weed control at 80 g/ha ([5]; Abutilon theophrasti, 504 h, 80 g/ha, scored visually after 3 weeks vs untreated controls (100% = plants have died, 0% = like control plants)) of 100%, a pest or weed control at 20 g/ha ([5]; Abutilon theophrasti, 504 h, dosage 20 g/ha, scored visually after 3 weeks vs untreated controls, 100% = plants have died, 0% = like control plants, read-out: Pre-emergence action against ABUTH (herbicidal activity in percent)) of 100% and a pest or weed control at 5 g/ha ([20]; dosage 5 g/ha) of 80%. For the same compound, the pest or weed control at 20 g/ha ([20]; dosage 20 g/ha) was 90%, the pest or weed control at 20 g/ha ([6]; Ipomoea purpurea, 504 h, dosage 20 g/ha) was 90% and the pest or weed control at 20 g/ha ([7]; Echinochloa crus-galli, 504 h, dosage 20 g/ha) was 90%. It also gave a pest or weed control at 20 g/ha ([8]; Alopecurus myosuroides, 504 h) of 100%, a pest or weed control at 5 g/ha ([10]; Setaria viridis, 504 h, dosage 5 g/ha) of 80% and a pest or weed control at 20 g/ha ([10]; Setaria viridis, 504 h, dosage 20 g/ha) of 100%. The pest or weed control at 80 g/ha ([11]; Lolium rigidum, 504 h) was 80%, the pest or weed control at 80 g/ha ([12]; Setaria viridis, 504 h) was 100% and the pest or weed control at 20 g/ha ([13]; Tripleurospermum inodorum, 504 h, dosage 20 g/ha) was 90%. The pest or weed control at 80 g/ha ([13]; Tripleurospermum inodorum, 504 h, dosage 80 g/ha) was 100%, the pest or weed control at 5 g/ha ([14]; Abutilon theophrasti, 504 h, dosage 5 g/ha) was 90% and the pest or weed control at 20 g/ha ([14]; Abutilon theophrasti, 504 h, dosage 20 g/ha) was 90%. For the same compound, the pest or weed control at 20 g/ha ([15]; Amaranthus retroflexus, 504 h) was 100%, the pest or weed control at 20 g/ha ([16]; Viola tricolor, 504 h, dosage 20 g/ha) was 90% and the pest or weed control at 80 g/ha ([16]; Viola tricolor, 504 h, dosage 80 g/ha) was 100%. It also gave a pest or weed control at 5 g/ha ([21]; 5 g/ha) of 90%, a pest or weed control at 20 g/ha ([21]; 20 g/ha) of 90% and a pest or weed control at 80 g/ha ([17]; Echinochloa crus-galli, 504 h) of 90%.
